# Data published in patent US8980926B2, “2-aminoindole compounds and methods for the treatment of malaria” (Genzyme Corporation, priority 2009, dated 2015).
# Read-outs that look alike come from different tables or passages of the source.
# Key:
# Erythrocyte lysis = format: cell-based; conditions: erythrocytes, read-out: Selectivity, Mammalian cytotoxicity (IC50; μM) Eryth. Lysis
# [1] = Mammalian cytotoxicity, dermal fibroblast; format: cell-based; conditions: human, normal human dermal fibroblasts (Clonetics #CC-2509); read-out: Selectivity, Mammalian cytotoxicity (IC50; μM) Dermal Fibroblast
# [2] = test system: Plasmodium falciparum strain Dd2; test: In vitro potency against P. falciparum strain Dd2; format: cell-based; conditions: read-out: Potency (IC50; nM) Plasmodium spp. Pf Dd2
# P. berghei N-clone = test: In vivo efficacy against P. berghei in mice (4-day suppressive test, oral); set-up: species or system P. berghei in Swiss Albino mice; conditions: for No. Cured: animals cured/group; for % Suppression Day 5: vs untreated controls; for Average Day of Recrudescence: Study Day; for Recrudescence (no. animals/total): no parasites on Day 5 but later regressed; for % of group without parasites: FIG. 3D; for cures: doses of 100-200 mg/kg/day
# Description: Because of ethical issues and costs, the acute P. berghei model in rodents is considered the “gold standard” for assessing anti-malarial efficacy in animal models. This model is adapted from Peters' “4-day suppressive test” (Peters, W. 1987. Chemotherapy and Drug Resistance in Malaria, p. 102-115, 2ed, vol. 1. Academic Press, Orlando, Fla.; Peters, W. 1975. The chemotherapy of rodent malaria, XXII. The value of drug-resistant strains of P. berghei in screening for blood schizontocidal activity. Ann Trop Med Parasitol 69:155-171). All studies were conducted in accordance with the Guide for the Care and Use of Laboratory Animals (National-Research-Council. 1996. Guide for the Care and Use of Laboratory Animals. National Academy Press, Washington, D.C.) and the PHS guidelines. Animals were maintained according to NIH guidelines and were allowed to acclimatize for 1 week prior to the commencement of studies. On Day 0, groups of 4-6-week old female Swiss Albino mice (n=5) were infected by tail vein injection with 0.2 ml heparinized blood diluted to contain 1×10^7 N-clone parasites. The aminoindole analogs were formulated in 1.6% lactic acid mixed sodium salt, 1% Tween 80, 9% ethanol and 20% Cerestar (hydroxypropyl β-cyclodextrin; Wacker Chimie) and were administered by oral gavage. […] Animals in the Control-group received vehicle alone. Dose concentration and frequency of dosing were based upon preliminary tolerability/exposure studies. On Day 4 post-infection (5th day of assay) blood was collected by tail-nick, and thin smear microscope slides were prepared and stained using Diff Quick®. Parasitized erythrocytes were counted and compared with the total number of erythrocytes per microscopic field to determine the percent parasitemia. A minimum of 350 erythrocytes were counted. Animals showing no detectable parasites on Day 4 were examined every 2-3 days to determine whether cure was sterile. Animals with no detectable parasites 28 days after cessation of dosing (Study Day 33) were considered cured.
# [3] = Mammalian cytotoxicity, kidney epithelial; format: cell-based; conditions: normal human renal proximal tubule cells; read-out: Selectivity, Mammalian cytotoxicity (IC50; μM) Kidney epithelial
# P. falciparum strain 3D7 = test: In vitro potency against P. falciparum strain 3D7 (SYBR green/DAPI); format: cell-based; conditions: Plasmodium falciparum
# P. berghei ANKA strain = test: In vitro potency against P. berghei ANKA; format: cell-based; conditions: Plasmodium berghei, read-out: Potency (IC50; nM) Plasmodium spp. Pb ANKA
# malaria = test: In vivo efficacy in an animal (rodent) model of malaria (FIGS. 1, 2); conditions: 50 mg/kg dose; FIGS. 2A and 2B
# P. knowlesi strain H1 = test: In vitro potency against P. knowlesi H1 in Rhesus blood cells (3H-hypoxanthine incorporation); format: cell-based; conditions: Plasmodium knowlesi, in Macaca mulatta, read-out: Potency (IC50; nM) Plasmodium spp. Pk H1
# Method: Selected compounds were tested against P. knowlesi H1 strain parasites cultured in Rhesus blood cells as a surrogate for P. vivax infections using the method of Kocken and coworkers (Kocken, C. H., H. Ozwara, A. van der Wel, A. L. Beetsma, J. M. Mwenda, and A. W. Thomas. 2002. Plasmodium knowlesi provides a rapid in vitro and in vivo transfection system that enables double-crossover gene knockout studies. Infect Immun 70:655-660). Briefly, P. knowlesi were cultured in 2% Rhesus macaque erythrocytes (New England Primate Research Center) in RPMI culture media containing 10% Human O+ serum (Interstate Blood Bank). Schizont stage parasites were purified by floatation in 60% Percoll (GE life sciences) and allowed to reinvade to generate a synchronous population of ring stage parasites. Drug assays were performed by plating ring stage parasites at 0.5% parasitemia in triplicate, in RPMI containing 2.5 μg/ml hypoxanthine. Parasites were incubated for 24 hours with serially diluted test compounds. After 24 hours, thin smears were made to confirm that reinvasion had occurred, 0.5 μCi ^3H-labeled hypoxanthine (Perkin Elmer) were added to each well, and parasites were allowed to progress through S-phase to early schizonts. Cells were then harvested via glass filter plates and ^3H incorporation was measured by scintillation counting. Values were normalized to percentage of controls containing no drug, and IC50 values were generated (GraphPad Prism®).
# hERG = molecular target: T1, hERG (Homo sapiens, UniProt Q12809); test: hERG in Chinese hamster ovary cells; format: cell-based
# T1 construct: expressed in transfected cells; host or cells: Chinese hamster ovary cells (from the earlier reading's assay name)
# [4] = read-out: Potency (IC50; nM) Plasmodium spp. Pf 3D7
# [5] = reductions in parasitemia, read-out: IC50 values
# T1 sequence (Q12809 whole entry): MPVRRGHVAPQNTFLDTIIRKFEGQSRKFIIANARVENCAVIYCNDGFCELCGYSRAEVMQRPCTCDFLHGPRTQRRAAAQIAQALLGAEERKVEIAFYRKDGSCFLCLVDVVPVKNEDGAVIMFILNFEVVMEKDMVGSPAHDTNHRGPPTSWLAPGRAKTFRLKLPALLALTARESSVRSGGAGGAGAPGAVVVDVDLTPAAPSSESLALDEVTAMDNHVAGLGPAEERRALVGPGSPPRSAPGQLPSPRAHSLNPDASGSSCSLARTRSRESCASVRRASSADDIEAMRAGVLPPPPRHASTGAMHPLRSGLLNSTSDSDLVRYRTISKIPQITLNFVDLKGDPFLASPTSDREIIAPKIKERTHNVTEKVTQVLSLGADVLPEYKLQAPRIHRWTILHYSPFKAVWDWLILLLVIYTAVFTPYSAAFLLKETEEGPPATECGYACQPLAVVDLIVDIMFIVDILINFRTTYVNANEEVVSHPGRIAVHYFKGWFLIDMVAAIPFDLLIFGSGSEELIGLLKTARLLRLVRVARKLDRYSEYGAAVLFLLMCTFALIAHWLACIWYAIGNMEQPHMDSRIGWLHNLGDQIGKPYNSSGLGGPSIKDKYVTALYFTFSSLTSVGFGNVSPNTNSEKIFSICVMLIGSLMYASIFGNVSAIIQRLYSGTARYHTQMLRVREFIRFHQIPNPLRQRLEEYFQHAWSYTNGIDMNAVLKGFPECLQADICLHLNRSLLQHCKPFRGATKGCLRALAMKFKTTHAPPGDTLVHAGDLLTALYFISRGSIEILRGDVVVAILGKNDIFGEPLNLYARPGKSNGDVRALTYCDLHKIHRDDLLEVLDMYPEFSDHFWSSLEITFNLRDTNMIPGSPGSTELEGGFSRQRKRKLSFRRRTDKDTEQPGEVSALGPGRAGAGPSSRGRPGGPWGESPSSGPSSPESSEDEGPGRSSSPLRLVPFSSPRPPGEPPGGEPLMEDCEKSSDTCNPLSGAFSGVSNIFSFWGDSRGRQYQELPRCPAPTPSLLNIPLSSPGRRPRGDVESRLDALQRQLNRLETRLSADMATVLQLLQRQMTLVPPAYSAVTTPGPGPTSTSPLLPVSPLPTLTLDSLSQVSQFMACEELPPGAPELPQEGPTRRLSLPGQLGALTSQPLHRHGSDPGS
Structure (SMILES),IC50 (Erythrocyte lysis) [µM],IC50 [1] [µM],IC50 [2] [nM],No. Cured (P. berghei N-clone; 100 mg/kg/day b.i.d. p.o.),% Suppression Day 5 (P. berghei N-clone; 100 mg/kg/day b.i.d. p.o.) [%],IC50 [3] [µM],IC50 (P. falciparum strain 3D7; [4]) [nM],IC50 (P. falciparum strain 3D7; [5]) [nM],further results
COc1cc(C2(O)C(N)=Nc3ccc(Cl)cc32)c(OC)cn1 (stereo not shown) [Compound 202],> 125,> 195,81,0/5,95,> 195,21,1 to 100,Average Day of Recrudescence (P. berghei N-clone; 200 mg/kg/day b.i.d. p.o.): 17 days; No. Cured (P. berghei N-clone; 200 mg/kg/day b.i.d. p.o.): 0/5; Recrudescence (no. animals/total) (P. berghei N-clone; 200 mg/kg/day b.i.d. p.o.): 2/5; % Suppression Day 5 (P. berghei N-clone; 200 mg/kg/day b.i.d. p.o.): 98%
CCOc1ccc(F)cc1[C@]1(O)C(N)=Nc2ccc(Cl)cc21 (stereo in doubt) [Compound 266],> 125,> 195,58,0/5,81,> 195,18,1 to 100,IC50 (P. berghei ANKA strain): 342 nM
NC1=Nc2ccc(Cl)cc2[C@@]1(O)c1ccccc1 [Compound 2],> 155,> 242,1460,,,> 242,665,100 to 500,IC50 (P. berghei ANKA strain): 1360 nM; in vivo efficacy (reducing parasitemia) (malaria): efficacious for reducing parasitemia; No. Cured (P. berghei N-clone; 50 mg/kg/day b.i.d. p.o.): 0/5; % Suppression Day 5 (P. berghei N-clone; 50 mg/kg/day b.i.d. p.o.): 80%
"CCOc1ccc(F)cc1C1(O)C(N)=Nc2ccc(Cl)cc21 (racemic) [Compound 142, 2-amino-5-chloro-3-(2-ethoxy-5-fluorophenyl)-3H-indol-3-ol]",> 125,> 195,49,0/5,99,> 195,23,1 to 100,"IC50 (P. knowlesi strain H1): 38 nM; Selectivity, hERG (μM) CHO (hERG): 21 µM; Average Day of Recrudescence (P. berghei N-clone; 100 mg/kg/day b.i.d. p.o.): 11 days; Recrudescence (no. animals/total) (P. berghei N-clone; 100 mg/kg/day b.i.d. p.o.): 1/5; Average Day of Recrudescence (P. berghei N-clone; 200 mg/kg/day b.i.d. p.o.): 13 days; No. Cured (P. berghei N-clone; 200 mg/kg/day b.i.d. p.o.): 3/5; Recrudescence (no. animals/total) (P. berghei N-clone; 200 mg/kg/day b.i.d. p.o.): 1/5; % Suppression Day 5 (P. berghei N-clone; 200 mg/kg/day b.i.d. p.o.): 99%; % of group without parasites (P. berghei N-clone; day 5, 100/mg/kg/day): 20%; % of group without parasites (P. berghei N-clone; day 5, 200/mg/kg/day): 80%; % of group without parasites (P. berghei N-clone; day 30, 200/mg/kg/day): 60%; cures (P. berghei N-clone): able to affect cures"
NC1=Nc2ccc(Cl)cc2[C@]1(O)c1ccccc1 [Compound 3],> 155,> 242,675,5/5,100,> 242,313,100 to 500,IC50 (P. berghei ANKA strain): 1690 nM; in vivo efficacy (reducing parasitemia) (malaria): efficacious for reducing parasitemia; in vivo efficacy (treatment of malaria) (malaria): effectively treated malaria; Average Day of Recrudescence (P. berghei N-clone; 50 mg/kg/day b.i.d. p.o.): 12 days; No. Cured (P. berghei N-clone; 50 mg/kg/day b.i.d. p.o.): 2/5; Recrudescence (no. animals/total) (P. berghei N-clone; 50 mg/kg/day b.i.d. p.o.): 3/5; % Suppression Day 5 (P. berghei N-clone; 50 mg/kg/day b.i.d. p.o.): 100%; cures (P. berghei N-clone): able to affect cures
NC1=Nc2ccc(Cl)cc2C1(O)c1cccc2ccccc12 (stereo not shown) [Compound 11],> 129,24,37,,,24,30,1 to 100,
NC1=Nc2ccc(Cl)cc2C1(O)Cc1ccccc1 (stereo not shown) [Compound 38],> 147,> 62.5,110,,,> 62.5,38,1 to 100,
Cc1ccc2c(c1)C(O)(c1ccccc1)C(N)=N2 (stereo not shown) [Compound 37],> 168,> 62.5,455,3/5,100,> 62.5,183,1 to 100,IC50 (P. knowlesi strain H1): 318 nM; Average Day of Recrudescence (P. berghei N-clone; 100 mg/kg/day b.i.d. p.o.): 17 days; Recrudescence (no. animals/total) (P. berghei N-clone; 100 mg/kg/day b.i.d. p.o.): 2/5; No. Cured (P. berghei N-clone; 200 mg/kg/day b.i.d. p.o.): 5/5; % Suppression Day 5 (P. berghei N-clone; 200 mg/kg/day b.i.d. p.o.): 100%; cures (P. berghei N-clone): able to affect cures
CC(C)C1(O)C(N)=Nc2ccc(Cl)cc21 (stereo not shown) [Compound 39],> 178,> 62.5,347,0/5,99,> 62.5,108,100 to 500,IC50 (P. knowlesi strain H1): 190 nM; IC50 (P. berghei ANKA strain): 2990 nM; Average Day of Recrudescence (P. berghei N-clone; 50 mg/kg/day b.i.d. p.o.): 10 days; No. Cured (P. berghei N-clone; 50 mg/kg/day b.i.d. p.o.): 0/5; Recrudescence (no. animals/total) (P. berghei N-clone; 50 mg/kg/day b.i.d. p.o.): 3/5; % Suppression Day 5 (P. berghei N-clone; 50 mg/kg/day b.i.d. p.o.): 98%; Average Day of Recrudescence (P. berghei N-clone; 100 mg/kg/day b.i.d. p.o.): 13 days; Recrudescence (no. animals/total) (P. berghei N-clone; 100 mg/kg/day b.i.d. p.o.): 3/5
CC(C)Oc1ccccc1C1(O)C(N)=Nc2ccc(Cl)cc21 (stereo not shown) [Compound 146],> 120,> 188,37,0/5),99,> 188,22,1 to 100,"IC50 (P. knowlesi strain H1): 90 nM; Selectivity, hERG (μM) CHO (hERG): 19 µM; Average Day of Recrudescence (P. berghei N-clone; 100 mg/kg/day b.i.d. p.o.): 6 days; Recrudescence (no. animals/total) (P. berghei N-clone; 100 mg/kg/day b.i.d. p.o.): 1/5"
COc1ccccc1CC1(O)C(N)=Nc2ccc(Cl)cc21 (stereo not shown) [Compound 134],,,,,,,,1 to 100,
COc1ccc2c(c1)C(O)(c1ccccc1)C(N)=N2 (stereo not shown) [Compound 42],,,,,,,,100 to 500,
CSc1ccccc1C1(O)C(N)=Nc2ccc(Cl)cc21 (stereo not shown) [Compound 121],,,,,,,,1 to 100,
COc1cnc(Cl)cc1C1(O)C(N)=Nc2ccc(Cl)cc21 (stereo not shown) [Compound 221],,,,,,,,100 to 500,
CSc1ccc(Cl)cc1C1(O)C(N)=Nc2ccc(Cl)cc21 (stereo not shown) [Compound 169],,,,,,,,1 to 100,
CCOc1ccc(OC)cc1C1(O)C(N)=Nc2ccccc21 (stereo not shown) [Compound 191],,,,,,,,1 to 100,
Cn1ncc2cc(Cl)cc(C3(O)C(N)=Nc4ccc(Cl)cc43)c21 (stereo not shown) [Compound 258],,,,,,,,1 to 100,
NC1=Nc2ccc(Cl)cc2C1(O)CC1CCCCC1 (stereo not shown) [Compound 43],,,,,,,,1 to 100,
NC1=Nc2ccc(Cl)cc2C1(O)c1cc(Cl)ccc1F (stereo not shown) [Compound 186],,,,,,,,1 to 100,
CC(C)Oc1cc(F)ccc1C1(O)C(N)=Nc2ccc(Cl)cc21 (stereo not shown) [Compound 215],,,,,,,,1 to 100,
CC(C)(C)c1ccc(C2(O)C(N)=Nc3ccccc32)cc1 (stereo not shown) [Compound 6],,,,,,,,500 to 1000,
Cc1ccc2c(c1)C(O)(c1cc(Cl)cnc1N(C)C)C(N)=N2 (stereo not shown) [Compound 270],,,,,,,,1 to 100,
